In patent publication US11278525B1, “Further molecules, compositions and methods for modulation of SIRT6” (SirTLab Corporation, priority 2017, dated 2022):

molecular target: SIRT6 (Homo sapiens, UniProt Q8N6T7); assay: SIRT6 enzymatic activity assay with fluorophore (AMC)-labeled Lysin-myristoylated histone H3 peptide (de-myristoylation, trypsin release); assay type: biochemical; design: six-histidine tag; made in house; host or cells: Escherichia coli BL21; conditions: amount tested 20 uM; Example 5, Table 9
Experimental: Human recombinant SIRT6 (sequence identifier: CAG33481.1; GI:4814651) was expressed in large scale in Escherichia coli strain BL21 as a six-histidine-tagged protein, after transformation of the expression plasmid pET28-SIRT6. The SIRT6 enzyme was purified from the bacteria culture broth in a two-step strategy. The first purification step was carried out by cation exchange chromatography on a HiTrap CM-Sepharose column (GE Healthcare) using an FPLC system. The second purification step was performed by immobilized metal ion affinity chromatography (IMAC) using a cobalt affinity column (Clontech).
The enzymatic activity assay is carried out in 96 or 384-well microplates using the purified recombinant SIRT6 and a fluorophore-labeled peptide substrate: 7-amino-4-methylcoumarin (AMC) that is quenched through conjugation to the C-terminal end of a Lysin-myristoylated histone H3 peptide. The activity assay procedure requires two steps, both performed in the same microplate. In the first step, the substrate is incubated with the purified SIRT6 protein along with the co-substrate nicotinamide adenine dinucleotide (NAD+). Upon de-myristoylation, the liberated ε-amino group of the lysine becomes a trypsin substrate. Treatment with trypsin in the second step releases the fluorophore resulting in an increase in fluorescence. Fluorescence intensity is measured using a fluorescent plate reader (excitation and emission at 370 nm and 450 nm, respectively). The fluorescence signal is directly proportional to SIRT6 enzymatic activity.
In the primary screening, compounds from a library (ChemDiv Inc.) were tested at a single concentration of 20 micromolar for their potential to modulate SIRT6 enzymatic activity. The assay was carried out in 384-well black well plates and all liquid handling was done using a robotic liquid handler. Purified recombinant SIRT6 (1 micromolar) was pre-incubated with each compound (or DMSO in control wells) for 15 minutes at room temperature. The first stage of the assay was initiated by adding a ‘substrate solution’ containing the myristoylated histone H3 peptide and NAD+(for final concentrations of 25 micromolar and 20 micromolar, respectively). After one hour incubation at 37° C., a Trypsin solution (6 mg/mL) was added for 30 minutes at room temperature. Fluorescence intensity was measured using a fluorescent plate reader (Tecan) with excitation at 370 nm and emission at 450 nm. The effect of each tested compound was evaluated by the change in the fluorescence intensity compared to control wells. […] To validate the primary screening results, each of the primary “hits” was re-tested, first at concentration of 20 micromolar in duplicates and later at a serial dilution ranging from 100 to 0.2 micromolar in triplicates.
Results of Assay—The results of the assay are given below in Tables 1-3.
Additional molecules were tested according to the methods and materials of Example 1. The amount tested was 20 uM for each molecule.

Chain of SIRT6 (Q8N6T7 whole entry): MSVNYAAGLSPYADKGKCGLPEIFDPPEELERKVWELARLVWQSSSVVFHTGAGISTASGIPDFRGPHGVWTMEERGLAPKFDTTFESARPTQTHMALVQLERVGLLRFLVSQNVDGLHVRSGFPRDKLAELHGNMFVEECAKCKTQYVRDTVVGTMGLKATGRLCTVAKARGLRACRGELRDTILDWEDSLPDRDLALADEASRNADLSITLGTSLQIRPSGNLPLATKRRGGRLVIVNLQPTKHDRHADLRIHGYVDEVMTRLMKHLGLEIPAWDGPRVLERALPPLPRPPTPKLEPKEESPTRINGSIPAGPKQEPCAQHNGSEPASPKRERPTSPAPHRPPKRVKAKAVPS

Point of comparison: `CN(C)CCCN(C(=O)CCOc1ccccc1)c1nc2ccc(Br)cc2s1` [E677-0691], “% Activity” value 28%. Against it:
- CCCc1ccc(-c2ccc(C(=O)Nc3nc4ccc(C)cc4s3)cc2)nc1 [0703-6407] — higher, 40%
- CCCCCCOc1ccc(C(=O)Nc2nc3ccc(OC)cc3s2)cc1 [0938-8060] — higher, 47%
- CCCc1cc2c(=O)c(-c3ccc4c(c3)OCO4)coc2cc1OC(C)=O [2188-3841] — lower, 21%
- CC(=O)Oc1ccc2c(C)c(Cc3ccccc3)c(=O)oc2c1C [2259-4062] — higher, 137%
- CCC(=O)Oc1ccc2c(C)c(Cc3ccccc3)c(=O)oc2c1C [2259-4063] — higher, 273%
- COc1ccc(C(=O)Oc2ccc3c4c(c(=O)oc3c2)CCC4)cc1 [2712-3502] — higher, 264%
- O=C(Oc1ccc2c3c(c(=O)oc2c1)CCC3)c1cccs1 [2712-4058] — higher, 455%
- COc1cc(C(=O)Oc2ccc3c4c(c(=O)oc3c2)CCC4)cc(OC)c1OC [2712-4061] — higher, 52%
- Cc1ccccc1C(=O)Oc1ccc2c3c(c(=O)oc2c1)CCC3 [2712-4063] — higher, 61%
- COc1ccc(C(=O)Oc2ccc3c4c(c(=O)oc3c2)CCC4)cc1OC [2712-4069] — higher, 294%
- CC(=O)Oc1ccc2c3c(c(=O)oc2c1C)CCCC3 [3330-4541] — higher, 105%
- Cc1ccc(COc2ccc3c4c(c(=O)oc3c2C)CCC4)cc1 [3338-2074] — lower, 21%
- COc1cc(OC)cc(C(=O)Nc2nc3c(cc4c5c(cccc53)CC4)s2)c1 [3343-0231] — lower, 24%
- COC(=O)COc1cccc2c1ccc1c3c(c(=O)oc12)CCCC3 [3532-0820] — higher, 30%
- CC(=O)Oc1ccc(C(=O)Nc2nc3c(C)cc(C)cc3s2)cc1 [3659-2007] — lower, 27%
- Cc1c(OC(=O)c2ccccc2)ccc2c3c(c(=O)oc12)CCC3 [4986-0081] — higher, 41%
- Cc1nc2cc(-c3ccccc3)nn2c(C(C)(C)C)c1C [5197-0134] — lower, 21%
- O=C(C1=CC=CC1)n1nc(-c2ccccc2)nc1NCc1ccco1 [6855-0211] — higher, 77%
- COC(=O)c1ccccc1NC(=O)Cn1c(S(=O)(=O)Cc2ccccc2)nc2ccccc21 [7398-1534] — lower, 27%
- CCS(=O)(=O)c1nc2ccccc2n1CC(=O)Nc1ccccc1C(=O)OC [7398-1618] — higher, 156%
- O=C(c1ccccc1Br)N1C(=O)c2ccccc2S1(=O)=O [8006-3826] — higher, 56%
- COC(=O)CSc1ccc(C#N)c(SCC(=O)OC)c1 [8012-3471] — lower, 23%
- Cc1cc(C)c2c(N)c(-c3nnc(-c4ccccc4)o3)sc2n1 [8018-7776] — higher, 42%
- CN(C)CCCN(C(=O)CCOc1ccccc1)c1nc2ccc(Cl)cc2s1 [B677-0564] — the same, 28%
- CCOc1cccc2sc(N(CCN(C)C)C(=O)CCS(=O)(=O)c3ccccc3)nc12 [E676-1270] — higher, 61%
- CN(C)CCN(C(=O)CCS(=O)(=O)c1ccccc1)c1nc2c(Cl)cccc2s1 [E676-1524] — higher, 80%
- COc1ccc(C)c2sc(N(CCN(C)C)C(=O)CCS(=O)(=O)c3ccccc3)nc12 [E676-2540] — higher, 59%
- CCN(CC)CCN(C(=O)CCS(=O)(=O)c1ccccc1)c1nc2c(C)cccc2s1 [E676-3810] — higher, 121%
- CCN(CC)CCN(C(=O)CCOc1ccccc1)c1nc2c(F)cccc2s1 [E676-4120] — higher, 60%
- CCN(CC)CCN(C(=O)CCOc1ccccc1)c1nc2c(F)cc(F)cc2s1 [E676-5517] — higher, 38%
- CN(C)CCCN(C(=O)CCS(=O)(=O)c1ccccc1)c1nc2ccc(F)cc2s1 [E677-0508] — higher, 53%
- COc1cccc2sc(N(CCCN(C)C)C(=O)CCOc3ccccc3)nc12 [E677-1072] — higher, 117%
- COc1cccc2sc(N(CCCN(C)C)C(=O)CCSc3ccccc3)nc12 [E677-1137] — higher, 111%
- COc1cccc2sc(N(CCCN(C)C)C(=O)CCS(=O)(=O)c3ccccc3)nc12 [E677-1143] — higher, 111%
- CN(C)CCCN(C(=O)CCS(=O)(=O)c1ccccc1)c1nc2c(F)cccc2s1 [E677-1397] — higher, 95%
- Cc1ccc2sc(N(CCCN(C)C)C(=O)CCS(=O)(=O)c3ccccc3)nc2c1C [E677-2159] — higher, 70%
- Cc1cc(C)c2sc(N(CCCN(C)C)C(=O)CCS(=O)(=O)c3ccccc3)nc2c1 [E677-2413] — higher, 115%
- CCC(=O)Nc1nc2c(OC)cc(NC(=O)c3ccccc3OC)cc2s1 [F259-0462] — higher, 117%
- O=C(CSc1nc2ncccc2n2cccc12)NCc1ccco1 [G117-0491] — higher, 88%
- COc1ccc(CN2CCN(C(=O)c3ccc(N4CCc5ccccc54)s3)CC2)c(OC)c1OC [G122-1838] — higher, 45%

same assay, conditions: compound 20 uM; percentage of signal increase relative to control wells; Tables 1-2

Point of comparison: `Cc1ccnc(NC(c2ccc(Cl)cc2Cl)c2ccc3cccnc3c2O)c1` (centres unmarked) [4896-3248], “% activity 20 uM” value 30%. Against it:
- O=c1[nH]c2ccc(Cl)cc2c(-c2ccccc2)c1Nc1ccc(Oc2ccccc2)cc1 [8013-3307] — lower, 24%

same assay, conditions: compound 100 uM; percentage of signal increase relative to control wells; Tables 1-2

Point of comparison: `Cc1ccccc1CSc1ncc(Sc2ccccc2)c(C(=O)NCc2ccccc2)n1` [D506-0127], “% activity Max. conc. 100 uM” value 65%. Against it:
- C=C(Cc1ccc2c(c1)C(C)=CC(C)(C)N2)Cc1cccc2ccccc12 [4477-0762] — lower, 56%
- CC1=CC(C)(C)Nc2ccc(OC(=O)c3cccs3)cc21 [4477-2607] — lower, 54%
- Cc1ccnc(NC(c2ccc(Cl)cc2Cl)c2ccc3cccnc3c2O)c1 (centres unmarked) [4896-3248] — lower, 28%
- Cn1c(-c2ccc3[nH]c(-c4ccc(N)cc4)nc3c2)nc2cc(N)ccc21 [6843-3168] — higher, 162%
- CCc1nnc(NC(=O)CSc2nc(N)nc(SC)c2C#N)s1 [8001-8196] — lower, 25%
- C=C(CS)Nc1ccc(CCCCC)cc1 [8008-0525] — lower, 48%
- C=C(CN1c2ccccc2C(C)(C)C12C=Cc1c(ccc3ccccc13)C2)NC (centres unmarked) [8008-8279] — lower, 27%
- Cc1nc2sc(-c3nc4ccccc4[nH]3)c(N)c2c(C)c1Cl [8012-5593] — lower, 59%
- O=c1[nH]c2ccc(Cl)cc2c(-c2ccccc2)c1Nc1ccc(Oc2ccccc2)cc1 [8013-3307] — higher, 86%
- N#Cc1c(N)oc(C2=CC=CC2)c1-c1ccco1 [8014-9229] — lower, 48%
- O=c1cc(O)c2sc3nc4c(cc3c2[nH]1)CCCCC4 [8018-3339] — higher, 75%
- C=C1Nc2nc(OC(C)=O)c(C)c(C)c2S1 [8018-4551] — higher, 197%
- COc1ccc(-c2nn3c(C)nnc3s2)cc1N [8018-6508] — lower, 18%
- CC1=NCC(c2ccc(O)cc2O)=C1c1ccc(Cl)cc1 [8020-1200] — higher, 94%
- C=C(OC(C)CC)C1=C(C)NC2=C(C(=C)C(C(=C)OC)C(C)C2)C1c1ccc(N(CC)CC)cc1 (centres unmarked) [C142-0098] — lower, 61%
- COc1ccc(-c2csc3c(NN)ncnc23)cc1 [C201-1744] — lower, 22%
- C=S(=C)(c1cc(Cl)ccc1Cl)n1c(/C=C/c2ccc(SC)cc2)nc2ccccc21 [C381-0232] — lower, 36%
- CCN1CCCC1CNC(=O)C1CCN(c2cc(C)nc3c(-c4ccc(Cl)cc4)c(C)nn23)CC1 (centres unmarked) [C535-0969] — lower, 29%
- Cc1cc(NC(=O)CSc2nnc(-c3sc4ncccc4c3N)n2C)ccc1Cl [D549-0050] — lower, 47%
- Cc1cc(Nc2ccc(NC(=O)Nc3ccc4c(c3)CCCO4)cc2)nc(NC2CCCCC2)n1 [D577-0290] — lower, 22%
- CC[C@H]1O[C@@H](Cc2ccc3c(c2C)CC(=O)C(C)=C3C)[C@H](C)[C@@H](O)[C@H]1C [D715-0292] — lower, 56%
- O=C(NCc1cccc(Cl)c1)c1noc2c1CSc1ccccc1-2 [E146-0990] — higher, 137%
- C=C1Cc2ccc(C)cc2C2=C1C(c1ccc(F)cc1)=C(NCCOC)C2 [F025-0094] — higher, 246%
- C=C1Oc2ccc(C)cc2-c2oc(NCCOC)c(-c3ccc(OCC)cc3)c21 [F025-0098] — higher, 226%
- COCCNc1oc2c(c1-c1ccc(C)cc1)c(=O)oc1c(C)cccc12 [F025-0102] — higher, 111%
- Cc1ccc(NC(=O)c2nnc(-c3ccc(NC(=O)c4cccs4)cc3)s2)cc1 [F498-0132] — lower, 16%
- C=C(CN1C(=C)C(c2nc(-c3ccccc3)no2)=C(C)C=C1C)NCCc1ccc(CC)c(CC)c1 [G744-0071] — higher, 73%
